Measurements as given in paper PMC11312998, “Molecular Pro-Apoptotic Activities of Flavanone Derivatives in Cyclodextrin Complexes: New Implications for Anticancer Therapy” (International Journal of Molecular Sciences, 2024).
≈ marks a conversion by molar mass, not a printed value. Read-outs that look alike come from different tables or passages of the source.

Key:
Ishikawa = test: MTT cytotoxicity assay; assay type: cell-based; details: Homo sapiens, Ishikawa, 24 h incubation, mean ± SEM
Procedure: (§1) Cell viability was determined using the metabolic microplate spectrophotometric assay with Methylthiazolyl diphenyltetrazolium bromide (MTT), i.e., 3-(4,5-Dimethyl-2-thiazolyl)-2,5-diphenyl-2H-tetrazolium bromide (Sigma-Aldrich; St. Louis, MO, USA). The anticancer activity of the investigated compounds was evaluated in vitro on the basis of their ability to inhibit the proliferation of various cancer cells. The appropriate number of cells for a given cell line (6–8 × 10^3 cells/mL) were seeded into sterile, colorless 96-well microplates. After 24 h of culture, specific wells of the microplate were treated with test compounds (10–200 µmol/L concentration) and incubated in a CO2 incubator for 24 h. The medium was then removed, the cell monolayer was washed twice with sterile PBS solution and fresh culture medium was added to the wells of the microplate.
(§2) After 48 h of cell culture, the MTT test was conducted. In each well of the microplate, 50 µL of tetrazolium salt solution (final concentration 0.05 mg/mL) was added. The microplate was then placed in a CO2 incubator for 3–4 h (depending on the cell line). Following incubation, 100 µL of DMSO (dimethyl sulfoxide, Sigma-Aldrich, St. Louis, MO, USA) was added to the microplate wells to dissolve the purple formazan crystals formed in the environment of living cells. The absorbance of the formazan solution was read at a wavelength of λ = 580 nm and a reference wavelength of λ = 720 nm after gentle mixing (Biotek Power Wave HT, Biotek Instruments, Winooski, VT, USA).
The percentage of live cells was calculated by comparing the absorbance value of the tested samples with that of the control (cells not treated with compounds). Control absorbance was arbitrarily considered to be 100%. […]

Hec-1-A = test: MTT cytotoxicity assay; assay type: cell-based; details: Homo sapiens, 24 h incubation, mean ± SEM
Procedure: as §1, §2
(§3) The percentage of live cells was calculated by comparing the absorbance value of the tested samples with that of the control (cells not treated with compounds). Control absorbance was arbitrarily considered to be 100%.
(§4) In order to determine the contribution of ROS to the cytotoxicity of the tested compounds, the cells were pre-incubated for 1 h with the antioxidant vitamin E (Trolox, Sigma-Aldrich; St. Louis, MO, USA). Cells were seeded into sterile, colorless 96-well microplates at a concentration of 6–8 × 10^3 cells/mL, depending on the cell line. After 24 h of culture, Trolox was added at a final concentration of 50 μM/well. After 1 h of incubation, the antioxidant was washed off, then appropriate concentrations of test compounds (10–200 µmol/L concentration) were added to fresh cell culture medium and incubated for 24 h. The MTT test was then performed under identical experimental conditions, as described in Section 3.1.2.

MCF-7 = test: MTT cytotoxicity assay; assay type: cell-based; details: Homo sapiens, MCF7, 24 h incubation, mean ± SEM
Procedure: as §1, §2, §3, §4

HCC38 = test: MTT cytotoxicity assay; assay type: cell-based; details: Homo sapiens, 24 h incubation, mean ± SEM
Procedure: as §1, §2, §3, §4

MDA-MB-231 = test: MTT cytotoxicity assay; assay type: cell-based; details: Homo sapiens, 24 h incubation, mean ± SEM
Procedure: as §1, §2, §3, §4

cancer cells = test: Reactive oxygen species generation (results not published); assay type: cell-based
[1] = tested on: breast cancer cells (MCF-7, MDA-MB-231 and HCC38) and endometrial cancer cells (Ishikawa, Hec-1-A); test: MTT cytotoxicity assay, summary over the cell lines; assay type: cell-based, human; details: for cytotoxic activity (in words): range of 10–200 µM, all cancer lines
Procedure: as §1, §2
The percentage of live cells was calculated by comparing the absorbance value of the tested samples with that of the control (cells not treated with compounds). Control absorbance was arbitrarily considered to be 100%. […] Moreover, cisplatin (Sigma-Aldrich, St. Louis, MO, USA) was used as a reference compound, and identical incubation conditions were used as described above.

[2] = Isothermal titration calorimetry (ITC) of inclusion complex formation; assay type: physicochemical; details: DMSO, 25 °C
Procedure: Measurements were carried out using a MicroCal VP-ITC100 microcalorimeter equipped with a 1400 μL measurement cell. All titrations were carried out under isothermal conditions at 25 degrees C in DMSO solution, which was used as a solvent. The mixing speed during the measurements was 351 rpm. The 0.2 mM solution of the ligand (3, 3a and 5) located in the measurement cell was titrated with the cyclodextrin solution located in the syringe. Each measurement consisted of 50 injections of cyclodextrin with a volume of 5 uL and a concentration of 5 mM. The interval between individual injections was 300 s. The effect of direct interaction of the ligand with CD was calculated by subtracting the thermal effects of diluting 5 mM cyclodextrin in a pure solvent. The dilution effect of the 0.2 mM ligand solution was negligible. The results obtained were processed in the MicroCall Origin 7 software. Using a single active site model (ITC Tutorial Guide), the stability constant K of the resulting complex, its stoichiometry n and thermodynamic parameters that describe the ongoing process were determined, viz., enthalpy (ΔH), Gibbs free energy (ΔG) and entropy (ΔS).

[3] = Water solubility by UV–Vis spectrophotometry (phase solubility with cyclodextrins); assay type: physicochemical; details: 25 °C, thermodynamic from solid, 298.15 K, without cyclodextrin, read-out: Solubility in H2O
Procedure: Spectrophotometric measurements were performed using a SPECORD 50 single-beam UV–Vis spectrophotometer (Analyst Jena, Thuringia, Germany). The calibration lines of the compounds tested were determined for the concentration range of 3.0 × 10^−6 M to 1 × 10^−4 M (Figure 21). The molar extinction coefficients for 3, 3a, and 5 were determined experimentally in an aqueous ethanol solution; the relevant maximum wavelengths are presented in Table 9. The influence of α-cyclodextrins, β-cyclodextrins and HP-β-cyclodextrins on the solubility of the tested ligands in water was evaluated in three measurement series. Briefly, excess ligand was introduced into closed Eppendorff tubes containing α-CD, β-CD or HP-β-CD solutions, at concentrations ranging from 1 to 90 mM for α-CD and HP-β-CD and from 1 to 15 mM for β-CD. The test tubes were stored for 10 days at a temperature of 298.15 K until equilibrium was achieved. After this time, the solutions were centrifuged using a Microcentrifuge MPW-55 at 13,000 rpm for five minutes. For testing, a clear solution was taken from above the sediment and diluted appropriately so that the spectrum was within the operating range of the spectrophotometer.

[4] = MTT cytotoxicity assay, model of normal cells; assay type: cell-based; details: human, HMEC-1 cells (model of normal cells), 24 h incubation, mean ± SEM, read-out: Cytotoxic effect of analogues incorporated in cyclodextrins and cyclodextrin, IC50
Procedure: as §1, §2, §3

RBCs = test: Erythrocyte morphology, phase contrast microscopy; assay type: cell-based, human; details: all tested concentrations; 24 h, 37 °C
Procedure: The experiments on human blood were performed in accordance with Polish national guidelines, and the study protocols were approved by the Bioethics Committee of the Medical University of Lodz, Poland: approval no (RNN/104/20/KE). The blood samples were obtained from healthy donors at the Blood Donation Centre in Lodz. The procedure for […] for erythrotoxicity studies is given in a previous paper. The influence of the synthesized compounds, together with a reference compound on RBC membrane integrity, was performed by lysis assay, described elsewhere. Briefly, 2% RBC suspension in 0.9% NaCl was incubated at 37 °C for 24 h with the tested compounds at concentrations of 100 µmol/L, 50 µmol/L, 25 µmol/L, 10 µmol/L and 1 µmol/L. The samples were centrifuged at 3000 rpm for 10 min, and the absorbance of the supernatant was measured at 550 nm. The results are presented as a percentage of hemolysis where a sample containing 10 μL of 2.0% v/v Triton X-100 was regarded as a positive control contributing to 100% of hemolysis. A sample containing saline solution represented the spontaneous hemolysis of RBCs (control). The experiments were conducted using at least three different biological materials (n = 3). […] Additionally, erythrocyte morphology was evaluated using a phase contrast Opta-Tech inverted microscope at 400× magnification.

[5] = read-out: Cytotoxic effect, IC50
[6] = read-out: Cytotoxic effect of analogues incorporated in cyclodextrins and cyclodextrin, IC50

Compound `Cc1ccc(/C=C2/C(=O)c3ccccc3OC2c2ccccc2)cc1` (stereo not drawn) [Compound 4] has an IC50 (Ishikawa; [5]) of 48.9 ± 6.1 µM, an IC50 (Hec-1-A; [5]) of 44.6 ± 4.5 µM and an IC50 (MCF-7; [5]) of 53.4 ± 4.1 µM. For the same compound, the IC50 (HCC38; [5]) was 93.2 ± 2.8 µM, the IC50 (MDA-MB-231; [5]) was over 120 µM and the “changes in the level of reactive oxygen species generation (in words)” value (“changes in the level” for short) (cancer cells) was “no statistically significant changes”. The “cytotoxic activity (in words)” value [1] was “very weak cytotoxic activity”.
Work on `CCN(CC)c1ccc(/C=C2/C(=O)c3ccccc3OC2c2ccccc2)cc1` (stereo not drawn) [Compound 2] yielded an IC50 (Ishikawa; [5]) of over 200 µM, an IC50 (Hec-1-A; [5]) of over 200 µM and an IC50 (MCF-7; [5]) of 122 ± 6.7 µM. The IC50 (HCC38; [5]) was over 200 µM, the IC50 (MDA-MB-231; [5]) was over 200 µM and the “changes in the level” value (cancer cells) was “no statistically significant changes”. For the same compound, the “cytotoxic activity (in words)” value [1] was “very weak cytotoxic activity”.
`COc1cccc(C2CN=NC23C(=O)c2ccccc2OC3c2ccccc2)c1` (stereo not drawn) [Compound 3a] gave an IC50 (Ishikawa; [5]) of 68.5 ± 4.6 µM, an IC50 (Hec-1-A; [5]) of 67.2 ± 2.5 µM and an IC50 (MCF-7; [5]) of 84.2 ± 2.2 µM. For the same compound, the IC50 (HCC38; [5]) was over 120 µM, the IC50 (MDA-MB-231; [5]) was over 120 µM and the “changes in the level” value (cancer cells) was “no statistically significant changes”. The “K (formation constant)” value ([2]; HP-β-cyclodextrin) was 5.66 × 10^3 ± 390, the “n (stoichiometry)” value ([2]; HP-β-cyclodextrin) was 0.98 ± 0.09 and the ΔG ([2]; HP-β-cyclodextrin) was −21,420.7 J mol^−1. For the same compound, the ΔH ([2]; HP-β-cyclodextrin) was -0.185 ± 0.0141 kcal/mol, the ΔS ([2]; HP-β-cyclodextrin) was 69.3 J mol^−1K^−1 and the “K (formation constant)” value ([2]; α-cyclodextrin) was 1.51 × 10^3 ± 130. For the same compound, the “n (stoichiometry)” value ([2]; α-cyclodextrin) was 0.85 ± 0.13, the ΔG ([2]; α-cyclodextrin) was −18,145.5 J mol^−1 and the ΔH ([2]; α-cyclodextrin) was -0.0669 ± 0.021 kcal/mol. The ΔS ([2]; α-cyclodextrin) was 59.9 J mol^−1K^−1, the “K (formation constant)” value ([2]; β-cyclodextrin) was 2.49 × 10^3 ± 200 and the “n (stoichiometry)” value ([2]; β-cyclodextrin) was 0.92 ± 0.11. For the same compound, the ΔG ([2]; β-cyclodextrin) was −19,385.4 J mol^−1, the ΔH ([2]; β-cyclodextrin) was -0.202 ± 0.017 kcal/mol and the ΔS ([2]; β-cyclodextrin) was 62.2 J mol^−1K^−1. The “cytotoxic activity (in words)” value [1] was “very weak cytotoxic activity” and the solubility at 10 days [3] was 1.55 µM (≈ 0.596 µg/mL).
`OC[C@H]1O[C@@H]2O[C@H]3[C@H](O)[C@@H](O)[C@@H](O[C@H]4[C@H](O)[C@@H](O)[C@@H](O[C@H]5[C@H](O)[C@@H](O)[C@@H](O[C@H]6[C@H](O)[C@@H](O)[C@@H](O[C@H]7[C@H](O)[C@@H](O)[C@@H](O[C@H]8[C@H](O)[C@@H](O)[C@@H](O[C@H]1[C@H](O)[C@H]2O)O[C@@H]8CO)O[C@@H]7CO)O[C@@H]6CO)O[C@@H]5CO)O[C@@H]4CO)O[C@@H]3CO` [β-CD, β-cyclodextrin, reference compound] showed an IC50 at 24 h [4] of over 120 µM, an IC50 (Ishikawa; [6]) of over 120 µM and an IC50 (Hec-1-A; [6]) of over 120 µM. For the same compound, the IC50 (MCF-7; [6]) was over 120 µM, the IC50 (HCC38; [6]) was over 120 µM and the IC50 (MDA-MB-231; [6]) was over 120 µM. The “RBC morphology (in words)” value (RBCs) was “no pathological changes in RBCs or damaged cells were observed” and the “cytotoxic activity of pure cyclodextrin (in words)” value ([1]; HMEC-1 endothelial cells or any tested cancer cells, 10–120 µM) was “not found to demonstrate any cytotoxic activity”.
